Experiments:
Assay type in all cases: biochemical
LOXL2 = target: T1, LOXL2 (Homo sapiens, UniProt Q9Y4K0); assay: Jump dilution experiment, sustained inhibition of LOXL2; conditions: for LOXL2 enzyme activity recovery: at 21-30 min after jump dilution, 10×IC50, 40 min preincubation at 37 °C; for Sustained inhibition of LOXL2: jump dilution, 21-30 min
T1 sequence (Q9Y4K0 26-774): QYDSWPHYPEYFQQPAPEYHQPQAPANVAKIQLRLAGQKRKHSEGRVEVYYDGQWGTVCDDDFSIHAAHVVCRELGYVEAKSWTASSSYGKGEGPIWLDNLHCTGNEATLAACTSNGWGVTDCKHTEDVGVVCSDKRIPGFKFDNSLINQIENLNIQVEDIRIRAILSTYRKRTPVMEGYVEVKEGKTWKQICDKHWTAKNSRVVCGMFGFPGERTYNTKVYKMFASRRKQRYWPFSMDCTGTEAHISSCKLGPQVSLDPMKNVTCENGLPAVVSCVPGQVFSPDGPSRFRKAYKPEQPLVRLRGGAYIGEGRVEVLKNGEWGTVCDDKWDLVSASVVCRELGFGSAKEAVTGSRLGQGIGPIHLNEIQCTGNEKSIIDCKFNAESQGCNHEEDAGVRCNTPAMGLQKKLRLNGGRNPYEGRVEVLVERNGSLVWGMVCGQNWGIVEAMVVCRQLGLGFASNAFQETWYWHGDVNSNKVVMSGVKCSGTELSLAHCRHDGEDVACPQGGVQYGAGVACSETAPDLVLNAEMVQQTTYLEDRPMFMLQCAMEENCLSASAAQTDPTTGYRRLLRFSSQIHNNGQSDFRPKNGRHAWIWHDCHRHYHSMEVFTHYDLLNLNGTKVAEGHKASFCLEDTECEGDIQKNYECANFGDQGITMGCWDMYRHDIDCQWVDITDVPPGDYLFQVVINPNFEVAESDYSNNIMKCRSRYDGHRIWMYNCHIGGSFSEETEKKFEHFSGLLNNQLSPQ
Description: (§1) Jump Dilution experiment: The assay was developed using a 96 well format and the starting enzyme concentration was set 100 times higher than for the inhibition studies. The enzyme was incubated for 40 minutes at 37 °C in presence of 10×IC50 concentrations of the test inhibitor. After the incubation, the mixture was diluted 50x in assay buffer, followed by a further 2× dilution in Amplex Red-horseradish peroxidase-putrescine reaction mix (as for Example 2) prior to the fluorescence measurement. Results were expressed in % recovery of the signal at 21-30 min by comparison with non-inhibited controls. LOXL1 is used as a surrogate for LOX owing to similar pharmacological behaviour.

Human recombinant LOXL4 = Human recombinant LOXL4 (Homo sapiens, UniProt Q96JB6); assay: LOXL4 inhibition, Amplex Red oxidation assay; conditions: 30 min incubation with enzyme at 37 °C
Description: LOX and LOXL protein family members can be acquired as recombinant active proteins from commercial sources, or extracted from animal tissues like bovine aorta, tendons, pig skin; or prepared from cell cultures. The inhibitory effects of the compounds of the present invention were tested against the given LOX or LOXL preparation using a method based on the detection of hydrogen peroxide with an Amplex Red oxidation assay [Zhou et al, 1997]. The assay was developed using either 384 or 96 well format. Briefly, in a standard black, clear bottom 384 well plate assay 25 µL of a dilution of any of the isoenzymes and orthologues in 1.2 M urea, 50 mM sodium borate buffer (pH 8.2) were added into each well in the presence of […] and 0.5 mM pargyline (to inhibit SSAO and MAO-B and MAO-A, respectively; not necessary if the enzyme is from a recombinant or purified form). Test compounds were dissolved in DMSO and tested in a Concentration Response Curve (CRC) with 11 data points, typically in the micromolar or nanomolar range after incubation with the enzyme for 30 min at 37 °C. […] The fluorescence (RFU) was read every 2.5 min for 30 min at 37 °C, excitation 544 nm and emission 590 (Optima; BMG labtech). The slope/min of the kinetics for each well was calculated using MARS data analysis software (BMG labtech) and this value was used to deduce the IC50 value (Dotmatics). […]

LOXL1 = target: T2, LOXL1 (Homo sapiens, UniProt Q08397); assay: Jump dilution experiment, sustained inhibition of LOXL1; conditions: for LOXL1 enzyme activity recovery: at 21-30 min after jump dilution, 10×IC50, 40 min preincubation at 37 °C; for Sustained inhibition of LOXL1: jump dilution, 21-30 min
T2 sequence (Q08397 96-574): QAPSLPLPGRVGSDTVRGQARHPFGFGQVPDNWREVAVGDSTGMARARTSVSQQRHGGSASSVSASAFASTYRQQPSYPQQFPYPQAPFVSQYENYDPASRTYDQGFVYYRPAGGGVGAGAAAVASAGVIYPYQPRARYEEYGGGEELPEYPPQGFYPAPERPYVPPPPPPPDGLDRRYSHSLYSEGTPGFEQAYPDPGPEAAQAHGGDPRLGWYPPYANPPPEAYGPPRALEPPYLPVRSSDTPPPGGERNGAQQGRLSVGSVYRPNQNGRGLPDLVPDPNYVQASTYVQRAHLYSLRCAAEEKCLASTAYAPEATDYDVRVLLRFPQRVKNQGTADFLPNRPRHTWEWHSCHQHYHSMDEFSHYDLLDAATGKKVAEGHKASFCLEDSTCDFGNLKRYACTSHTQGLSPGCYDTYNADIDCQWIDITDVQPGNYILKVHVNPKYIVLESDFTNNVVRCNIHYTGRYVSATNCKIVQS
Description: as §1

Sequence of Human recombinant LOXL4 (Q96JB6 25-756): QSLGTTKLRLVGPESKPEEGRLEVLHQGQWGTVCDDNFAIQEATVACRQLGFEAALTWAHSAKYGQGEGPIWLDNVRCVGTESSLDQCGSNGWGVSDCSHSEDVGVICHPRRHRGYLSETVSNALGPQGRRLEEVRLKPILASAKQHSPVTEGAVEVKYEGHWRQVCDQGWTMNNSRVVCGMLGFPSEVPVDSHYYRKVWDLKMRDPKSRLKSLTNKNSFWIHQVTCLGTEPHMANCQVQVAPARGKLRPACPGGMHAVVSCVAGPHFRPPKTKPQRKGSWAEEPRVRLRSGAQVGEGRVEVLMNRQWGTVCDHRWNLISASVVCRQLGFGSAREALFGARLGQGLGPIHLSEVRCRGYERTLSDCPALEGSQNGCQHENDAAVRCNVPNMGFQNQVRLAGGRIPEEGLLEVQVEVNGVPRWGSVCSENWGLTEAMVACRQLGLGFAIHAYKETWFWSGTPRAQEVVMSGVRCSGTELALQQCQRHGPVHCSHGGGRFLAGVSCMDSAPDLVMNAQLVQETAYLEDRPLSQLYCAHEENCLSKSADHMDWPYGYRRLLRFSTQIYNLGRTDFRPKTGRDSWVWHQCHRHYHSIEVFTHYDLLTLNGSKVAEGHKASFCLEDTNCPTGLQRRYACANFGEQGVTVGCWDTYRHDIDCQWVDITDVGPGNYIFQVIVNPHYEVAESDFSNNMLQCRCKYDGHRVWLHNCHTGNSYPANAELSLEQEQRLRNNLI

| SMILES | LOXL2 enzyme activity recovery (LOXL2) | Sustained inhibition of LOXL2 (LOXL2) | IC50 (Human recombinant LOXL4) | LOXL1 enzyme activity recovery (LOXL1) | Sustained inhibition of LOXL1 (LOXL1) |
| --- | --- | --- | --- | --- | --- |
| N#CCCN [BAPN, β-aminopropionitrile, reference compound] | 11.2% | sustained inhibition | 300 nM | 0.3% | sustained inhibition |
| NC/C(=C\F)CS(=O)(=O)c1ccccc1 [Compound 1, (E)-3-fluoro-2-((phenylsulfonyl)methyl)prop-2-en-1-amine] | 2.5% | sustained inhibition | 4700 nM | 2.5% | sustained inhibition |

— patent publication US20260364030A1, “NOVEL SELECTIVE INHIBITORS OF LYSYL OXIDASES” (Syntara Limited, priority 2022, published 2026)
